Measured values from patent US20260217711A1, “TRIAZOLOPYRIDINYL ETHER LINKED COMPOUNDS AS KINASE INHIBITORS” (Bristol-Myers Squibb Company, priority 2023, published 2026).
pIC50: −log10 of the molar value. Like-named read-outs stand apart in the source and are kept apart here.

System: MLKL phosphorylation (pMLKL) in HT29-L23 cells
Assay: MLKL Phosphorylation High-Content Assay
Type: cell-based
Conditions: 6 h, necroptosis induced with human TNFα, SMAC mimetic and Z-VAD, read-out: LE pMLKL HC IC50
Method: Following 6 h incubation at 37° C. […] MLKL phosphorylation was detected using anti-MLKL (phospho […]) antibody (Abcam #ab187091) (1:1000 dilution in Blocking Buffer [PBS supplemented with 0.1% BSA]) with ON incubation at 4° C. […] Following another three cycles of washes in PBS, the microplates were sealed, and cellular images were acquired in the Cellomics ArrayScan VTI high-content imager equipped with an X1 camera. […] The image sets were analyzed using the Compartmental Analysis Bioapplication software (Cellomics). The level of MLKL phosphorylation was quantified as […].

| Compound | pIC50 (Homo sapiens) | pIC50 |
| --- | --- | --- |
| COc1ccc(OCCC(F)(F)C(C)(O)c2ccc(F)cc2)c(F)c1-c1ccn2nc(N)nc2c1 (racemic) [Example 22, 5-(3-(2-amino-[1,2,4]triazolo[1,5-a]pyridin-7-yl)-2-fluoro-4-methoxyphenoxy)-3,3-difluoro-2-(4-fluorophenyl)pentan-2-ol] | 9.05 |  |
| Cc1ccc(-c2ccn3nc(N)nc3c2)c(F)c1OCCC(F)(F)C(O)c1ccc(F)cc1 (racemic) [Example 66, 4-(3-(2-amino-[1,2,4]triazolo[1,5-a]pyridin-7-yl)-2-fluoro-6-methylphenoxy)-2,2-difluoro-1-(4-fluorophenyl)butan-1-ol] | 9.52 |  |
| Nc1nc2cc(-c3cccc(OCCC(F)(F)C(O)c4ccccc4)c3F)ccn2n1 (racemic) [Example 69, 4-(3-(2-amino-[1,2,4]triazolo[1,5-a]pyridin-7-yl)-2-fluorophenoxy)-2,2-difluoro-1-phenylbutan-1-ol] | 8.52 |  |
| Nc1nc2cc(-c3cccc(OCCC(F)(F)C(O)c4ccc(Cl)cc4)c3F)ccn2n1 (racemic) [Example 70, 4-(3-(2-amino-[1,2,4]triazolo[1,5-a]pyridin-7-yl)-2-fluorophenoxy)-1-(4-chlorophenyl)-2,2-difluorobutan-1-ol] | 9.00 |  |
| CC(O)(c1ccc(F)cc1)C(F)(F)CCOc1cccc(-c2ccn3nc(N)nc3c2)c1F (racemic) [Example 73, 5-(3-(2-amino-[1,2,4]triazolo[1,5-a]pyridin-7-yl)-2-fluorophenoxy)-3,3-difluoro-2-(4-fluorophenyl)pentan-2-ol] | 9.30 |  |
| CC(O)(c1ccc(F)cc1)C(F)(F)CCOc1cnc(Cl)c(-c2ccn3nc(N)nc3c2)n1 (racemic) [Example 81, 5-((6-(2-amino-[1,2,4]triazolo[1,5-a]pyridin-7-yl)-5-chloropyrazin-2-yl)oxy)-3,3-difluoro-2-(4-fluorophenyl)pentan-2-ol] | 9.70 |  |
| CC(O)(c1ccc(F)cc1)C(F)(F)CCOc1c(Cl)ccc(-c2ccn3nc(N)nc3c2)c1F (single isomer, unassigned) [Example 5, 5-(3-(2-amino-[1,2,4]triazolo[1,5-a]pyridin-7-yl)-6-chloro-2-fluorophenoxy)-3,3-difluoro-2-(4-fluorophenyl)pentan-2-ol] |  | 6.82 |
| CC(C)CC(O)C(F)(F)CCOc1cccc(-c2ccn3nc(N)nc3c2)c1F (single isomer, unassigned) [Example 6, 1-(3-(2-amino-[1,2,4]triazolo[1,5-a]pyridin-7-yl)-2-fluorophenoxy)-3,3-difluoro-6-methylheptan-4-ol] | 7.10 |  |
| CC(C)CC(O)C(F)(F)CCOc1cccc(-c2ccn3nc(N)nc3c2)c1F (single isomer, unassigned) [Example 7, 1-(3-(2-amino-[1,2,4]triazolo[1,5-a]pyridin-7-yl)-2-fluorophenoxy)-3,3-difluoro-6-methylheptan-4-ol] |  | 6.80 |
| CC(O)(c1ccc(F)cc1)C(F)(F)CCOc1ccc(F)c(-c2ccn3nc(N)nc3c2)c1F (single isomer, unassigned) [Example 8, 5-(3-(2-amino-[1,2,4]triazolo[1,5-a]pyridin-7-yl)-2,4-difluorophenoxy)-3,3-difluoro-2-(4-fluorophenyl)pentan-2-ol] |  | 8.05 |
| CC(O)(c1ccc(F)cc1)C(F)(F)CCOc1ccc(F)c(-c2ccn3nc(N)nc3c2)c1F (single isomer, unassigned) [Example 9, 5-(3-(2-amino-[1,2,4]triazolo[1,5-a]pyridin-7-yl)-2,4-difluorophenoxy)-3,3-difluoro-2-(4-fluorophenyl)pentan-2-ol] |  | 10.00 |
| CC(O)(c1ccc(F)cc1)C(F)(F)CCOc1cc(F)cc(-c2ccn3nc(N)nc3c2)c1F (single isomer, unassigned) [Example 10, 5-(3-(2-amino-[1,2,4]triazolo[1,5-a]pyridin-7-yl)-2,5-difluorophenoxy)-3,3-difluoro-2-(4-fluorophenyl)pentan-2-ol] |  | 9.00 |
| CC(O)(c1ccc(F)cc1)C(F)(F)CCOc1cc(F)cc(-c2ccn3nc(N)nc3c2)c1F (single isomer, unassigned) [Example 11, 5-(3-(2-amino-[1,2,4]triazolo[1,5-a]pyridin-7-yl)-2,5-difluorophenoxy)-3,3-difluoro-2-(4-fluorophenyl)pentan-2-ol] |  | 9.70 |
| [2H]C([2H])(CC(F)(F)C(C)(O)c1ccc(F)cc1)Oc1cccc(-c2ccn3nc(N)nc3c2)c1F (single isomer, unassigned) [Example 12, 5-(3-(2-amino-[1,2,4]triazolo[1,5-a]pyridin-7-yl)-2-fluorophenoxy)-3,3-difluoro-2-(4-fluorophenyl)pentan-5,5-d2-2-ol] |  | 9.00 |
| [2H]C([2H])(CC(F)(F)C(C)(O)c1ccc(F)cc1)Oc1c(F)ccc(-c2ccn3nc(N)nc3c2)c1F (single isomer, unassigned) [Example 14, 5-(3-(2-amino-[1,2,4]triazolo[1,5-a]pyridin-7-yl)-2,6-difluorophenoxy)-3,3-difluoro-2-(4-fluorophenyl)pentan-5,5-d2-2-ol] |  | 7.52 |
| CC(N)(c1ccc(F)cc1)C(F)(F)CCOc1c(F)ccc(-c2ccn3nc(N)nc3c2)c1F (single isomer, unassigned) [Example 16, 7-(3-((4-amino-3,3-difluoro-4-(4-fluorophenyl)pentyl)oxy)-2,4-difluorophenyl)-[1,2,4]triazolo[1,5-a]pyridin-2-amine] |  | 7.70 |
| CC(N)(c1ccc(F)cc1)C(F)(F)CCOc1c(F)ccc(-c2ccn3nc(N)nc3c2)c1F (single isomer, unassigned) [Example 17, 7-(3-((4-amino-3,3-difluoro-4-(4-fluorophenyl)pentyl)oxy)-2,4-difluorophenyl)-[1,2,4]triazolo[1,5-a]pyridin-2-amine] |  | 7.22 |
| COc1ccc(-c2ccn3nc(N)nc3c2)c(F)c1OCCC(F)(F)C(C)(O)c1ccc(F)cc1 (single isomer, unassigned) [Example 18, 5-(3-(2-amino-[1,2,4]triazolo[1,5-a]pyridin-7-yl)-2-fluoro-6-methoxyphenoxy)-3,3-difluoro-2-(4-fluorophenyl)pentan-2-ol] |  | 7.10 |
| COc1ccc(-c2ccn3nc(N)nc3c2)c(F)c1OCCC(F)(F)C(C)(O)c1ccc(F)cc1 (single isomer, unassigned) [Example 19, 5-(3-(2-amino-[1,2,4]triazolo[1,5-a]pyridin-7-yl)-2-fluoro-6-methoxyphenoxy)-3,3-difluoro-2-(4-fluorophenyl)pentan-2-ol] |  | 9.40 |
| COc1cc(F)c(OCCC(F)(F)C(C)(O)c2ccc(F)cc2)c(F)c1-c1ccn2nc(N)nc2c1 (single isomer, unassigned) [Example 20, 5-(3-(2-amino-[1,2,4]triazolo[1,5-a]pyridin-7-yl)-2,6-difluoro-4-methoxyphenoxy)-3,3-difluoro-2-(4-fluorophenyl)pentan-2-ol] |  | 6.96 |
| COc1cc(F)c(OCCC(F)(F)C(C)(O)c2ccc(F)cc2)c(F)c1-c1ccn2nc(N)nc2c1 (single isomer, unassigned) [Example 21, 5-(3-(2-amino-[1,2,4]triazolo[1,5-a]pyridin-7-yl)-2,6-difluoro-4-methoxyphenoxy)-3,3-difluoro-2-(4-fluorophenyl)pentan-2-ol] |  | 8.96 |
| CC(O)(c1ccc(F)cc1)C(F)(F)CCOc1cccc(-c2ccn3nc(N)nc3c2)c1C(F)F (single isomer, unassigned) [Example 23, 5-(3-(2-amino-[1,2,4]triazolo[1,5-a]pyridin-7-yl)-2-(difluoromethyl)phenoxy)-3,3-difluoro-2-(4-fluorophenyl)pentan-2-ol] | 5.22 |  |
| CC(O)(c1ccc(F)cc1)C(F)(F)CCOc1cccc(-c2ccn3nc(N)nc3c2)c1C(F)F (single isomer, unassigned) [Example 24, 5-(3-(2-amino-[1,2,4]triazolo[1,5-a]pyridin-7-yl)-2-(difluoromethyl)phenoxy)-3,3-difluoro-2-(4-fluorophenyl)pentan-2-ol] |  | 5.22 |
| CC(O)(c1ccc(F)cc1)C(F)(F)CCOc1c(C(F)F)ccc(-c2ccn3nc(N)nc3c2)c1F (single isomer, unassigned) [Example 25, 5-(3-(2-amino-[1,2,4]triazolo[1,5-a]pyridin-7-yl)-6-(difluoromethyl)-2-fluorophenoxy)-3,3-difluoro-2-(4-fluorophenyl)pentan-2-ol] |  | 8.82 |
| CC(O)(c1ccc(F)cc1)C(F)(F)CCOc1c(C(F)F)ccc(-c2ccn3nc(N)nc3c2)c1F (single isomer, unassigned) [Example 26, 5-(3-(2-amino-[1,2,4]triazolo[1,5-a]pyridin-7-yl)-6-(difluoromethyl)-2-fluorophenoxy)-3,3-difluoro-2-(4-fluorophenyl)pentan-2-ol] |  | 9.52 |
| CC(O)(c1ccc(F)cn1)C(F)(F)CCOc1c(Cl)ccc(-c2ccn3nc(N)nc3c2)c1F (single isomer, unassigned) [Example 32, 5-(3-(2-amino-[1,2,4]triazolo[1,5-a]pyridin-7-yl)-6-chloro-2-fluorophenoxy)-3,3-difluoro-2-(5-fluoropyridin-2-yl)pentan-2-ol] |  | 7.52 |
| Nc1nc2cc(-c3ccc(F)c(OCCC(F)(F)C(O)c4ccc(F)cn4)c3F)ccn2n1 (single isomer, unassigned) [Example 33, 4-(3-(2-amino-[1,2,4]triazolo[1,5-a]pyridin-7-yl)-2,6-difluorophenoxy)-2,2-difluoro-1-(5-fluoropyridin-2-yl)butan-1-ol] |  | 7.07 |
| CC(O)(c1cccnc1)C(F)(F)CCOc1c(F)ccc(-c2ccn3nc(N)nc3c2)c1F (single isomer, unassigned) [Example 36, 5-(3-(2-amino-[1,2,4]triazolo[1,5-a]pyridin-7-yl)-2,6-difluorophenoxy)-3,3-difluoro-2-(pyridin-3-yl)pentan-2-ol] | 8.30 |  |
